This passage reports ΔTm results from ChEMBL document CHEMBL1145498, “A systematic interaction map of validated kinase inhibitors with Ser/Thr kinases” (Proc Natl Acad Sci U S A, 2007).

Assay [1] concerns the target Serine/threonine-protein kinase PLK1 (Homo sapiens) (UniProt P53350).
Assay [2] addresses Calcium/calmodulin-dependent protein kinase type 1G (Homo sapiens) (UniProt Q96NX5).
In assay [3] the target is Dual specificity mitogen-activated protein kinase kinase 2 (Homo sapiens, UniProt P36507).
Dual specificity mitogen-activated protein kinase kinase 2, sequence (P36507 whole entry): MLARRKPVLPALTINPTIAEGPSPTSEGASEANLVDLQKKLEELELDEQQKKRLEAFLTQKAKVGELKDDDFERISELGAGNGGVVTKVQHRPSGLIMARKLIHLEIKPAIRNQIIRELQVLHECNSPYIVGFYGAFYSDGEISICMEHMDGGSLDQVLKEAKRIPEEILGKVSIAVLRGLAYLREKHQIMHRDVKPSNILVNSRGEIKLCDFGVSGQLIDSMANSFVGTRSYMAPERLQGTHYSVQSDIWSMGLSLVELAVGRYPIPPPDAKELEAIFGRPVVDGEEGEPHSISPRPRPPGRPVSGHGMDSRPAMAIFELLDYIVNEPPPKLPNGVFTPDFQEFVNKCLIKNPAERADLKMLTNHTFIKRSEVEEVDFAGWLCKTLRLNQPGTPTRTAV
In assay [4] the target is T1, Serine/threonine-protein kinase VRK3 (Homo sapiens) (UniProt Q8IV63).
T1 sequence (whole entry): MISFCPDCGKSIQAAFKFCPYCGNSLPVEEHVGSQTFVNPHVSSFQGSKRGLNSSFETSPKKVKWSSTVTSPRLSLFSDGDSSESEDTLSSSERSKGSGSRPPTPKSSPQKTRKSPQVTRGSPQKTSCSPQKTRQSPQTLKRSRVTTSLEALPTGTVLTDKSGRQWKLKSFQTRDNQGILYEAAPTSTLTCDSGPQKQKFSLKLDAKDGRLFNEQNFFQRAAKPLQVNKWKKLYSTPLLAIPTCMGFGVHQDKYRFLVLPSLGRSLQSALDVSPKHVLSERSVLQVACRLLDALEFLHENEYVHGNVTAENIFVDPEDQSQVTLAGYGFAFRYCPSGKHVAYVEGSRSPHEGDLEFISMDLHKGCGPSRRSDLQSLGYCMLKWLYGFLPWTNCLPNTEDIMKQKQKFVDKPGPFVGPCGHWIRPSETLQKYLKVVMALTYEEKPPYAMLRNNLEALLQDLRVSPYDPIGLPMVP

Assay [5] deals with Calcium/calmodulin-dependent protein kinase type II subunit delta (Homo sapiens) (UniProt Q13557).
Calcium/calmodulin-dependent protein kinase type II subunit delta (Homo sapiens), sequence (Q13557 whole entry): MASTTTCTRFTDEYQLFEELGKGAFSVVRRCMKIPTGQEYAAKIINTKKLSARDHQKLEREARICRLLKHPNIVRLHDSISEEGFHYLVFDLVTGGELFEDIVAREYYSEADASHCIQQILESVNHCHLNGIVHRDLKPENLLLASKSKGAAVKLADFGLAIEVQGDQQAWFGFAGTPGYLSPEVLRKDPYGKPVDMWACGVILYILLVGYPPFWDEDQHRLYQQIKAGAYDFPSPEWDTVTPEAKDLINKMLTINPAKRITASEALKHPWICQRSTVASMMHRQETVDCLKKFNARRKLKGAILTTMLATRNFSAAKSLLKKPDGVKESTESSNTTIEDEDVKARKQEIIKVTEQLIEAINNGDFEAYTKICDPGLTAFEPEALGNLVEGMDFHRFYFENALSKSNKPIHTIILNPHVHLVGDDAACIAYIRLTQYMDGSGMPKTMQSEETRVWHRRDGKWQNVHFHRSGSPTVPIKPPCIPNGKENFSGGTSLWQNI
Assay [6] deals with Mitogen-activated protein kinase 3 (Homo sapiens, UniProt P27361).
Assay [7] has as its target Serine/threonine-protein kinase RIO2 (Homo sapiens) (UniProt Q9BVS4).
For assay [8], the target named is T2, Calcium/calmodulin-dependent protein kinase type IV (Homo sapiens) (UniProt Q16566).
T2 sequence (whole entry): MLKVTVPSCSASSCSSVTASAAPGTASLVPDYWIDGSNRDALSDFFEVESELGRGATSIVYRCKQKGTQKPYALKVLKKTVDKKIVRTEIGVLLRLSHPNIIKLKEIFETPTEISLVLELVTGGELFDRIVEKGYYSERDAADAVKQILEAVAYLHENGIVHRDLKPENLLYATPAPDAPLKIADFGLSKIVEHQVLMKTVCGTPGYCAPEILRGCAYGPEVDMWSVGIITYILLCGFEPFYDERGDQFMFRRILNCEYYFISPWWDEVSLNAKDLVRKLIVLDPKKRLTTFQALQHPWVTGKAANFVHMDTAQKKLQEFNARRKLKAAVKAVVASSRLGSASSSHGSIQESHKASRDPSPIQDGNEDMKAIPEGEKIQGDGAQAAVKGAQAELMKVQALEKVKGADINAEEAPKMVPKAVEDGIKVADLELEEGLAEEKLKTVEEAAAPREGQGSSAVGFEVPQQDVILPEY

Assay [9] deals with T3, Lymphokine-activated killer T-cell-originated protein kinase (Homo sapiens) (UniProt Q96KB5).
T3 sequence (whole entry): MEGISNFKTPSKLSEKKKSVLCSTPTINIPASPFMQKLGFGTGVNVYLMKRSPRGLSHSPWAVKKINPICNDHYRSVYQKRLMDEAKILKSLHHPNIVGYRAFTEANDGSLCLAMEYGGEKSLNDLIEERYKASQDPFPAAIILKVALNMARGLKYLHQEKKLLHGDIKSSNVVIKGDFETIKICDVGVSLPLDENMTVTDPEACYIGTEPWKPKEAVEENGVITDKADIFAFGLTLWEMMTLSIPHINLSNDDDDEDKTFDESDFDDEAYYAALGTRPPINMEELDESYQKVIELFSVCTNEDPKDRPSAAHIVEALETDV

The target in assay [10] is Serine/threonine-protein kinase Nek6 (Homo sapiens) (UniProt Q9HC98).
In assay [11] the target is Calcium/calmodulin-dependent protein kinase type 1D (Homo sapiens) (UniProt Q8IU85).
Calcium/calmodulin-dependent protein kinase type 1D (Homo sapiens), sequence (Q8IU85 whole entry, looked up): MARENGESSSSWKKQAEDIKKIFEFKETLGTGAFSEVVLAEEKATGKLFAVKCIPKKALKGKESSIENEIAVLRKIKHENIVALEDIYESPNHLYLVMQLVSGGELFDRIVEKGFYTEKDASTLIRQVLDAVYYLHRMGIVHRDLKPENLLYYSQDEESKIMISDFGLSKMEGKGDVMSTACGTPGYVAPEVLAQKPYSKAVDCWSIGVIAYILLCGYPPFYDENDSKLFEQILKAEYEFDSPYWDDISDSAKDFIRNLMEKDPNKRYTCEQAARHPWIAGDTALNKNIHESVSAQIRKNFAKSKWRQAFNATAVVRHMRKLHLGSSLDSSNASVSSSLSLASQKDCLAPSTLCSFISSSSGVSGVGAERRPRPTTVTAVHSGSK
For assay [12], the target named is Serine/threonine-protein kinase 26 (Homo sapiens) (UniProt Q9P289).
Serine/threonine-protein kinase 26 (Homo sapiens), sequence (Q9P289 2-416 limits assumed): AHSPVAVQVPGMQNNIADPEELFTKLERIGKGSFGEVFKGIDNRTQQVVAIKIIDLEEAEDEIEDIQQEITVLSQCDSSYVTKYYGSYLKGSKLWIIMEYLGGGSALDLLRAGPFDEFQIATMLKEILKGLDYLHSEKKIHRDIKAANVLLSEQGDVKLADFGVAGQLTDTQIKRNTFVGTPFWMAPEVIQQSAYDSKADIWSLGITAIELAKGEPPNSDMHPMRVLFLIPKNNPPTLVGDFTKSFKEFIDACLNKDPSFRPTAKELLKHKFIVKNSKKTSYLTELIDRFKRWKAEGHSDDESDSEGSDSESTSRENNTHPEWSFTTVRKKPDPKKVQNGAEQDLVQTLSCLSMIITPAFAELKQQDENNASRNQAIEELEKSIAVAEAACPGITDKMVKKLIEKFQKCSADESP
Assay [13] addresses 5'-AMP-activated protein kinase catalytic subunit alpha-2 (Homo sapiens) (UniProt P54646).
The target of assay [14] is T4, Dual specificity mitogen-activated protein kinase kinase 6 (Homo sapiens) (UniProt P52564).
T4 sequence (whole entry): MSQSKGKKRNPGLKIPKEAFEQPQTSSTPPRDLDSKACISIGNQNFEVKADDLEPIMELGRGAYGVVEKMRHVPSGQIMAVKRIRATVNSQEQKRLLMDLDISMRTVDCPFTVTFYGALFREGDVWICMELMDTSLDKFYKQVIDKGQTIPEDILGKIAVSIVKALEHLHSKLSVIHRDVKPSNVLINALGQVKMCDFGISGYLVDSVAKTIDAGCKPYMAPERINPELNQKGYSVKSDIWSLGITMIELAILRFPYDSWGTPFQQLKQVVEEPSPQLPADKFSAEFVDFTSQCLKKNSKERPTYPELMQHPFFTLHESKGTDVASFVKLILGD

The target in assay [15] is Serine/threonine-protein kinase 25 (Homo sapiens) (UniProt O00506).
Serine/threonine-protein kinase 25 (Homo sapiens), sequence (O00506 whole entry, looked up): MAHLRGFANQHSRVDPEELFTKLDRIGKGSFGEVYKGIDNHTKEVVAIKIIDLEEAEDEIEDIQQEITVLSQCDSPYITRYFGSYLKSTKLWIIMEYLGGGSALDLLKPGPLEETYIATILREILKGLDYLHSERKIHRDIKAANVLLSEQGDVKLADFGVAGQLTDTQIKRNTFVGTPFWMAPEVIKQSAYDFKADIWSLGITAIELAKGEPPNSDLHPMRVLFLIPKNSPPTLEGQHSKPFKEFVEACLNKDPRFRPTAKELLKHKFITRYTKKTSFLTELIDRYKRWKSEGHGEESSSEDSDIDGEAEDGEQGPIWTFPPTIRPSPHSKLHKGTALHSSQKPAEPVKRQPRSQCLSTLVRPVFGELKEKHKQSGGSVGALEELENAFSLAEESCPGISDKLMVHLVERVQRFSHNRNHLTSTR
Assay [16] has as its target Cyclin-dependent kinase 16 (Homo sapiens) (UniProt Q00536).
Assay [17] deals with Casein kinase I isoform gamma-3 (Homo sapiens) (UniProt Q9Y6M4).
Casein kinase I isoform gamma-3 (Homo sapiens), sequence (Q9Y6M4 whole entry, looked up, canonical isoform): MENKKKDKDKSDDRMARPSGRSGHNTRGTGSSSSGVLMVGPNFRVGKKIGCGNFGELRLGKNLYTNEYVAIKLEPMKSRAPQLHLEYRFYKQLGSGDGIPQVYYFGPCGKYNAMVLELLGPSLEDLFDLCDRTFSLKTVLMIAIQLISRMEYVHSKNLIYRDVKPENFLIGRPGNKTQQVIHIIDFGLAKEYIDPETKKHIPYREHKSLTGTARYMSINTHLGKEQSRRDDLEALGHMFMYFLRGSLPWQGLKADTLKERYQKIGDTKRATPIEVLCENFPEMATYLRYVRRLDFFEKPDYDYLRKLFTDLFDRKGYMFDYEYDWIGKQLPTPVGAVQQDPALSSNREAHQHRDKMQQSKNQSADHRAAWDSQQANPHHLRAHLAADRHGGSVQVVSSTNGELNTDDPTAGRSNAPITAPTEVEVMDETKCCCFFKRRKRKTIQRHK
Assay [18] has as its target Death-associated protein kinase 3 (Homo sapiens) (UniProt O43293).
Assay [19] concerns the target Serine/threonine-protein kinase 38 (Homo sapiens) (UniProt Q15208).
Assay [20] deals with Calcium/calmodulin-dependent protein kinase kinase 2 (Homo sapiens, UniProt Q96RR4).
The target in assay [21] is Ribosomal protein S6 kinase alpha-3 (Homo sapiens) (UniProt P51812).
Ribosomal protein S6 kinase alpha-3 (Homo sapiens), sequence (P51812 whole entry): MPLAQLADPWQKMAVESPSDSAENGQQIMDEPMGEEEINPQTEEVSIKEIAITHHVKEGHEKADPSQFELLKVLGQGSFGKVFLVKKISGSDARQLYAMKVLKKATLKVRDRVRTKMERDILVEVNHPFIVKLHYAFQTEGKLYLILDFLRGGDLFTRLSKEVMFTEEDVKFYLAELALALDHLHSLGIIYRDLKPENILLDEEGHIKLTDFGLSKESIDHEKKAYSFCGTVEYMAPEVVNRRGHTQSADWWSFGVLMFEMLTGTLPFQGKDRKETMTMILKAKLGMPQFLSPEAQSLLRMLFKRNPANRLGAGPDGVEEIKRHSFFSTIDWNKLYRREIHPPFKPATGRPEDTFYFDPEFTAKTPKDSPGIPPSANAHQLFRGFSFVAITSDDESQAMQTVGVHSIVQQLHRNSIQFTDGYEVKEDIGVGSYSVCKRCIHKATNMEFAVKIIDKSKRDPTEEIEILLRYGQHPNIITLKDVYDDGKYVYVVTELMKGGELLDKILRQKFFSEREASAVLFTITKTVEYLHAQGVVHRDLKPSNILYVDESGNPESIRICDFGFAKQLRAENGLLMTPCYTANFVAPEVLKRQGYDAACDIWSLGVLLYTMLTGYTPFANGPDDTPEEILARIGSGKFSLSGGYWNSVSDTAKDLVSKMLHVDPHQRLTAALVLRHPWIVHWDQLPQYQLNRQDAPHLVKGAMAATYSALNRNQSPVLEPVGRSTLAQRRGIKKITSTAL

Serine/threonine-protein kinase RIO2 (Homo sapiens), sequence (Q9BVS4 whole entry, looked up): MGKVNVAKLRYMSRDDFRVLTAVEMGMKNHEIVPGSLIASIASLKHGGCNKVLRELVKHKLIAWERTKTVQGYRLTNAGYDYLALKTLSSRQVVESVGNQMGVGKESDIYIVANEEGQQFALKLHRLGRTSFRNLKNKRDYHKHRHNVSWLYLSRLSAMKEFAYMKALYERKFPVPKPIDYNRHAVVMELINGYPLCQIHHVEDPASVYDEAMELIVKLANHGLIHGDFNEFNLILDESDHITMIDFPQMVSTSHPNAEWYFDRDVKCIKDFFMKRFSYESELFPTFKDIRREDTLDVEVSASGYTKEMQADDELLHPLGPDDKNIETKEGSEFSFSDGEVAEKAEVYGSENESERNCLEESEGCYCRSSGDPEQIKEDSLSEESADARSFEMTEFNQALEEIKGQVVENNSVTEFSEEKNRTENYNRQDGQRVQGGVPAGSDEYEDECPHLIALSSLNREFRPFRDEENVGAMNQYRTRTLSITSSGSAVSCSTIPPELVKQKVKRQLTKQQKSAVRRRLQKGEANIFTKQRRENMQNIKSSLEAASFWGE
Cyclin-dependent kinase 16 (Homo sapiens), sequence (Q00536 whole entry, canonical isoform): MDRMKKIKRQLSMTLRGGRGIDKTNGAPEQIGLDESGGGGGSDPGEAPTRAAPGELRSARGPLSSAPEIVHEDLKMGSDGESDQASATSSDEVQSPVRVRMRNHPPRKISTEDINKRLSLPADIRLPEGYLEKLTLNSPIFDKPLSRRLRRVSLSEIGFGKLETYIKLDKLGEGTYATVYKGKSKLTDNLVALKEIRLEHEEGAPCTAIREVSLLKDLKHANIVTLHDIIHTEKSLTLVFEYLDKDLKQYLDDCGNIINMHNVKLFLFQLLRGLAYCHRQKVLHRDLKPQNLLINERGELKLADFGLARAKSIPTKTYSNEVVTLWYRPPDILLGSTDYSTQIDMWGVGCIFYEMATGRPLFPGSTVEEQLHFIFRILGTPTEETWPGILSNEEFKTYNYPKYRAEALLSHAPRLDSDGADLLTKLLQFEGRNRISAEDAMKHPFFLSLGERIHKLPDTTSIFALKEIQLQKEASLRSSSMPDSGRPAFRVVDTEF
Serine/threonine-protein kinase PLK1 (Homo sapiens), sequence (P53350 whole entry): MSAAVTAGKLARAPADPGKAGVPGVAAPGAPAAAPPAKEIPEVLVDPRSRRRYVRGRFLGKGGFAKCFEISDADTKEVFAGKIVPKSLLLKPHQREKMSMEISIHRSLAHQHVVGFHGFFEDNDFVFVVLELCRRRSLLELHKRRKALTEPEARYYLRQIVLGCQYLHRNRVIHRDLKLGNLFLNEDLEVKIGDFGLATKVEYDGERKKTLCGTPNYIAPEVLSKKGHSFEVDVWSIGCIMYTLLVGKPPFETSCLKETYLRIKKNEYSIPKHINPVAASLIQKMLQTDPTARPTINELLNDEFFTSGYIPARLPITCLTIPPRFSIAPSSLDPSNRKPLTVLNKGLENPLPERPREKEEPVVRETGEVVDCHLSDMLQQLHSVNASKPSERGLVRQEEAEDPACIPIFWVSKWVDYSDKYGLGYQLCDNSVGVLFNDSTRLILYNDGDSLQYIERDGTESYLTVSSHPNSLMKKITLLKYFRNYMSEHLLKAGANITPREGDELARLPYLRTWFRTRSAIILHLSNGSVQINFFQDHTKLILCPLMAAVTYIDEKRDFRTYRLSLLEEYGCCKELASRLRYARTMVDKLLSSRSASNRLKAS

As to `O=c1c2ccccc2[nH]c(=S)n1CCN1CCC(=C(c2ccc(F)cc2)c2ccc(F)cc2)CC1` [DIACYLGLYCEROL KINASE INHIBITOR II], the thermal shift (ΔTm) in [1] was 0.6 °C; in [2] it was 0.1 °C; in [3], 0.3 °C; in [4], -0.6 °C; in [5] it was -5.4 °C; in assay [6], 0.2 °C. The ΔTm came out at 3.5 °C in assay [7]; 0.2 °C in assay [8]; 0.1 °C in assay [9]; 0.1 °C in assay [10]; 0.8 °C in [11]; 2.1 °C in [12]. Moreover, the ΔTm in assay [13] is -3.3 °C; in [14] it was 0.4 °C; in [15], 1.5 °C; in assay [16] it was -0.7 °C; in [17] it was -1.3 °C; in assay [18], 1.6 °C. The thermal shift (ΔTm) was 0.2 °C in [19], 1.8 °C in [20] and 1.2 °C in assay [21].
`O=C1c2ccccc2-[n+]2ccc3c([nH]c4ccccc43)c21` [FASCAPLYSIN CHLORIDE]: the ΔTm in [1] is 0.8 °C; in assay [2], -3.5 °C; in assay [3] it was -0.8 °C; in [4], -0.4 °C; in [5] it was -2.9 °C; in assay [6] it was 0.3 °C. Besides, the shift in melting temperature (ΔTm) was -0.9 °C in assay [7]; 0.7 °C in assay [8]; 0.6 °C in assay [9]; -0.1 °C in [10]; -4.3 °C in [11]; -2.5 °C in assay [12]. Besides, the shift in melting temperature (ΔTm) in assay [13] was 0 °C; in assay [14] it was -0.8 °C; in [15], -1.5 °C; in assay [16], -0.6 °C; in [17], -0.8 °C; in [18] it was -0.5 °C. The ΔTm was -0.5 °C in assay [19], -2.1 °C in assay [20] and -0.1 °C in assay [21].
For `CCOc1cc2ncnc(Nc3cccc(Br)c3)c2cc1OCC`, the ΔTm in assay [1] is 0.2 °C; in assay [2], 0.4 °C; in assay [3], 0.8 °C; in [4], 0.1 °C; in assay [5], 0.6 °C; in assay [6] it was 0.7 °C. For the same compound, the shift in melting temperature (ΔTm) in assay [7] was 3.5 °C; in assay [8], 0.3 °C; in assay [9] it was 0.1 °C; in [10] it was 0.7 °C; in assay [11] it was 0.7 °C; in assay [12] it was 0.8 °C. Besides, the ΔTm in assay [13] was 0.1 °C; in assay [14], 0.3 °C; in assay [15], 1.5 °C; in assay [16], -1 °C; in assay [17], -0.2 °C; in assay [18], 2.7 °C. The ΔTm in [19] amounted to 0.7 °C; in assay [20], 2.7 °C; in assay [21], 2.5 °C.
For the compound `CCOC(=O)c1cnc2oc3ccc(O)cc3c2c1-c1ccccc1`, the ΔTm in assay [1] was 0.8 °C; in [2], 0.1 °C; in assay [3], 0.5 °C; in assay [4] it was -0.6 °C; in [5], -0.1 °C; in assay [6], -0.1 °C. Also, the shift in melting temperature (ΔTm) in assay [7] was 1.2 °C; in assay [8], 0.8 °C; in assay [9], -0.2 °C; in assay [10], -0.5 °C; in [11], 0.4 °C; in [12] it was 0 °C. Besides, the thermal shift (ΔTm) was 0 °C in assay [13]; 1.9 °C in assay [14]; 0 °C in [15]; -0.6 °C in assay [16]; 1.1 °C in [17]; 0.8 °C in assay [18]. For the same compound, the ΔTm in assay [19] was 0.2 °C; in assay [20] it was 2.3 °C; in [21], 4.4 °C.
As for `O=C1NC(=O)c2c1c1c3ccccc3n3c1c1c2c2ccccc2n1C1CCC3O1`, the ΔTm in assay [1] was 4 °C; in assay [2] it was -0.2 °C; in assay [3] it was -0.2 °C; in assay [4], 0 °C; in assay [5], -0.2 °C; in assay [6] it was -0.2 °C. The thermal shift (ΔTm) in [7] was -0.2 °C; in assay [8] it was -0.2 °C; in assay [9], -0.3 °C; in [10], -0.3 °C; in [11] it was 1.6 °C; in assay [12] it was -0.6 °C. The ΔTm in assay [13] was 3.9 °C; in [14], -0.2 °C; in [15] it was 2.1 °C; in assay [16] it was 0.3 °C; in [17], 0.3 °C; in assay [18] it was -0.5 °C. Also, the values for the shift in melting temperature (ΔTm) in assay [19], in [20] and in assay [21] were 0 °C, -0.3 °C and 0 °C, respectively.
Take `CN(C)CCCn1cc(C2=C(c3c[nH]c4ccccc34)C(=O)NC2=O)c2ccccc21` [GF-109203]: the shift in melting temperature (ΔTm) is 1 °C in assay [1]; 0.6 °C in assay [2]; 0.1 °C in assay [3]; 0 °C in assay [4]; 1.1 °C in assay [5]; 0.6 °C in assay [6]. The ΔTm in assay [7] amounted to 0.3 °C; in assay [8], 1.1 °C; in [9], 0.2 °C; in assay [10] it was 0.9 °C; in [11] it was 1.1 °C; in [12], 1.7 °C. Further, the thermal shift (ΔTm) in assay [13] was determined as 2.6 °C; in assay [14], 1.1 °C; in assay [15] it was 2.7 °C; in [16], 3 °C; in assay [17], 0.3 °C; in assay [18] it was 2.8 °C. In addition, the shift in melting temperature (ΔTm) in assay [19] amounted to 0.3 °C; in assay [20], 2.6 °C; in assay [21] it was 7.8 °C.
For `N#CC(C#N)=Cc1ccc(O)c(O)c1` [TYRPHOSTIN 23], the shift in melting temperature (ΔTm) in assay [1] was 0.4 °C; in assay [2] it was 0 °C; in [3] it was 0.1 °C; in [4], -0.2 °C; in [5] it was 0.4 °C; in assay [6], 0.3 °C. Besides, the thermal shift (ΔTm) in assay [7] amounted to 1.5 °C; in assay [8] it was 0.4 °C; in [9], 0.4 °C; in [10], 0.6 °C; in [11], 0.2 °C; in assay [12], 0.1 °C. In addition, the ΔTm in assay [13] is -0.1 °C; in assay [14], 0.2 °C; in assay [15], -0.2 °C; in assay [16] it was -0.7 °C; in assay [17], 0.3 °C; in assay [18] it was 0.7 °C. Moreover, the ΔTm in [19] is 0.2 °C; in [20], -0.7 °C; in assay [21], 0.2 °C.

Usually ΔTm stands for the change in melting temperature against a reference sample.
